From ChEMBL document CHEMBL2331379, “Synthesis of derivatives of methyl rosmarinate and their inhibitory activities against matrix metalloproteinase-1 (MMP-1)” (Eur J Med Chem, 2013)

Assays:
[1] = molecular target: T1, Interstitial collagenase (Homo sapiens, UniProt P03956); experiment: Inhibition of human recombinant MMP1 catalytic domain using Dnp-Pro-beta-cyclohexyl-Ala-Gly-Cys(Me)-His-Lys-(Nma)-NH2 as substrate preincubated with enzyme for 30 mins prior to substrate addition monitored for 60 mins by fluorometric assay
T1 sequence (P03956 whole entry): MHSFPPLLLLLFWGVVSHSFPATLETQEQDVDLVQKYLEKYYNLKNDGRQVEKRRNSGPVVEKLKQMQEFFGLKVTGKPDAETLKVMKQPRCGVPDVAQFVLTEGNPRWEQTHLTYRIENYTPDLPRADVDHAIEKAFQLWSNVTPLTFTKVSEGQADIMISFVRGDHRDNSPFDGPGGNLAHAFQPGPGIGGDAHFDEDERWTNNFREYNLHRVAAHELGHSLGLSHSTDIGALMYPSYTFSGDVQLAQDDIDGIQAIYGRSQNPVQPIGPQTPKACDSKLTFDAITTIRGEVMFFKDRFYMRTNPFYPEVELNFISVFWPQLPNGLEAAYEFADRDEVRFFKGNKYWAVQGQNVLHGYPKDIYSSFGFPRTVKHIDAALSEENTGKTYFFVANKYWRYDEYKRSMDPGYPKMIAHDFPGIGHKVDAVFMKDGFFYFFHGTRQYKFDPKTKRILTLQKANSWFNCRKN

[2] = molecular target: Collagenase 3 (Homo sapiens, UniProt P45452); experiment: Inhibition of MMP13 (unknown origin)
[3] = molecular target: Stromelysin-1 (Homo sapiens, UniProt P08254); experiment: Inhibition of MMP3 (unknown origin)
Chain of Stromelysin-1 (P08254 whole entry): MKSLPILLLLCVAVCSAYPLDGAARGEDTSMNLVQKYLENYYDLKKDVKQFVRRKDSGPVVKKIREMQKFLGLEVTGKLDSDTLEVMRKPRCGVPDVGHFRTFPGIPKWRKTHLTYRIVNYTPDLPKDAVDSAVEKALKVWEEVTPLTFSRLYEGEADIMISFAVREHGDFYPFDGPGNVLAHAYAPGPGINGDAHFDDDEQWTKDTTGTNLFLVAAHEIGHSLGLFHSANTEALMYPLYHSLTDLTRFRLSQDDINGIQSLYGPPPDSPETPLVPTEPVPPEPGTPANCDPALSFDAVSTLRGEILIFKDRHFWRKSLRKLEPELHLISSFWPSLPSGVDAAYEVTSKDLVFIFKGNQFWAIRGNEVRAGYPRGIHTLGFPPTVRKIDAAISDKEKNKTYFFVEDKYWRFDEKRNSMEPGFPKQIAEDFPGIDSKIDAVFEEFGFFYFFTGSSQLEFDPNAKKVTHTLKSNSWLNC

[4] = molecular target: 72 kDa type IV collagenase (Homo sapiens, UniProt P08253); experiment: Inhibition of MMP2 (unknown origin)
Chain of 72 kDa type IV collagenase (P08253 whole entry): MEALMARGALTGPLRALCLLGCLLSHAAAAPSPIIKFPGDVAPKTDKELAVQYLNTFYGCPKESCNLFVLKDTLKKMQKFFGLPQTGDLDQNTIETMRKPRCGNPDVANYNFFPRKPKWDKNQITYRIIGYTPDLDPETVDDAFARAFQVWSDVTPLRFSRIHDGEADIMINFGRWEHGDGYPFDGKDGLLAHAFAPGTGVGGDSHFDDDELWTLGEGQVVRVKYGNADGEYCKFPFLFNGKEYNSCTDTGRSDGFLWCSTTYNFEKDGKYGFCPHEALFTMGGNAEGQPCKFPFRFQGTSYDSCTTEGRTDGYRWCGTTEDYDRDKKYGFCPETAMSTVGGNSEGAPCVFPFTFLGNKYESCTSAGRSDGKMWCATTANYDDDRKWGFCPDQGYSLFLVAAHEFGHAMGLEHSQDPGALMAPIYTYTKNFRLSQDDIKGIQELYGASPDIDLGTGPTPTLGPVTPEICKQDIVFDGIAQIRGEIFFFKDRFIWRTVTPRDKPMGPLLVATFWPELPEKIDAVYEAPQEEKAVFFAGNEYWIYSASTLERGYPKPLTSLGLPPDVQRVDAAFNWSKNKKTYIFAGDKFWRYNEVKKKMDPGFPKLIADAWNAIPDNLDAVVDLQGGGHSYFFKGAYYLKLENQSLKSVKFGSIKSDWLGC

[5] = molecular target: Macrophage metalloelastase (Homo sapiens, UniProt P39900); experiment: Inhibition of MMP12 (unknown origin)
Chain of Macrophage metalloelastase (P39900 whole entry): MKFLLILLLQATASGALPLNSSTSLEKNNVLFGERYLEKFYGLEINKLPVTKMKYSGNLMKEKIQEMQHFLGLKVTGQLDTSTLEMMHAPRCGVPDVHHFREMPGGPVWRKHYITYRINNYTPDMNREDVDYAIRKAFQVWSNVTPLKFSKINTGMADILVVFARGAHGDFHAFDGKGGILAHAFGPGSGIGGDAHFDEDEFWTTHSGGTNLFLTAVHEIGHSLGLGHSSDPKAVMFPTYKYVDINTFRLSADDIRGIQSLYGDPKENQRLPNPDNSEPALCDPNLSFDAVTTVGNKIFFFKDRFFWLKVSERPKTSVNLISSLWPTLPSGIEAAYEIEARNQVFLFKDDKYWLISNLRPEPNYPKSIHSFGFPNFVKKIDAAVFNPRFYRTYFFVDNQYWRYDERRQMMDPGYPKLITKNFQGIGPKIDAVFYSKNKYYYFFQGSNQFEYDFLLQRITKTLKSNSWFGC

[6] = molecular target: Matrix metalloproteinase-9 (Homo sapiens, UniProt P14780); experiment: Inhibition of MMP9 (unknown origin)
Chain of Matrix metalloproteinase-9 (P14780 whole entry): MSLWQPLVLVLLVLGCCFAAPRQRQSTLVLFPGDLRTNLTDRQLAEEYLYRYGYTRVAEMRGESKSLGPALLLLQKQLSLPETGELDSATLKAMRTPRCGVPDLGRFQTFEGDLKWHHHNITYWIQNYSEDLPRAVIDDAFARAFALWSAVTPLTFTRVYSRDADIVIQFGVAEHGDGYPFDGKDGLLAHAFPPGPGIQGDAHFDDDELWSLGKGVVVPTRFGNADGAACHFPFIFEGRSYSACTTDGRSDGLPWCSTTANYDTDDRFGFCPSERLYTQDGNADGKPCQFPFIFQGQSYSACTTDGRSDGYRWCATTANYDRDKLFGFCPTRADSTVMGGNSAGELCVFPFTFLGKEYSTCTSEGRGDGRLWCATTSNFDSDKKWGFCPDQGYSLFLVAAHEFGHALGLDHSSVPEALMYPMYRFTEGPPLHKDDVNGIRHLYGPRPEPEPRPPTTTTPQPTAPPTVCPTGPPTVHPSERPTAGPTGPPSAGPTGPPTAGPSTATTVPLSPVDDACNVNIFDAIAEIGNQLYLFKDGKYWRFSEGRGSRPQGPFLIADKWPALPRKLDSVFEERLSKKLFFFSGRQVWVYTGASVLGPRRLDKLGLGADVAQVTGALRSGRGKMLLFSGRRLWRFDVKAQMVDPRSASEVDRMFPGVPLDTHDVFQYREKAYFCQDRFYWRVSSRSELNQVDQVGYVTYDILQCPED

| IC50 [1] [µM] | Structure (SMILES) | further results |
| --- | --- | --- |
| 38.9 | COc1ccc(CC(OC(=O)/C=C/c2ccc(C(F)(F)F)cc2)C(=O)O)cc1OC (stereo not given) | – |
| 53.7 | COc1ccc(CC(OC(=O)/C=C/c2ccccc2)C(=O)O)cc1OC (stereo not given) | – |
| > 100 | COc1ccc(CC(OC(=O)/C=C/c2ccc(C)cc2)C(=O)O)cc1OC (stereo not given) | – |
| 41.7 | COc1ccc(CC(OC(=O)/C=C/c2ccc(F)cc2)C(=O)O)cc1OC (stereo not given) | – |
| 42.6 | COc1ccc(CC(OC(=O)/C=C/c2ccc(Cl)cc2)C(=O)O)cc1OC (stereo not given) | – |
| 10.7 | COc1ccc(CC(OC(=O)/C=C/c2ccc(Br)cc2)C(=O)O)cc1OC (stereo not given) | – |
| 34.7 | COc1ccc(CC(OC(=O)/C=C/c2ccccc2F)C(=O)O)cc1OC (stereo not given) | – |
| 38.5 | COc1ccc(CC(OC(=O)/C=C/c2ccc([N+](=O)[O-])cc2)C(=O)O)cc1OC (stereo not given) | – |
| 8.6 | COc1ccc(CC(OC(=O)/C=C/c2ccc(-c3ccccc3)cc2)C(=O)O)cc1OC (stereo not given) | – |
| 8.9 | COc1ccc(CC(OC(=O)/C=C/c2ccc(OCc3ccccc3)cc2)C(=O)O)cc1OC (stereo not given) | – |
| > 100 | COc1ccc(/C=C/C(=O)OC(Cc2ccc(OC)c(OC)c2)C(=O)O)cc1 (stereo not given) | – |
| 13.7 | COc1ccc(CC(OC(=O)/C=C/c2ccc(O)c(O)c2)C(=O)O)cc1OC (stereo not given) | – |
| > 100 | COc1ccc(/C=C/C(=O)OC(Cc2ccc(OC)c(OC)c2)C(=O)O)cc1OC (stereo not given) | – |
| 2.5 | COc1ccc(CC(OC(=O)/C=C/c2ccc(OCc3ccccc3)c(OCc3ccccc3)c2)C(=O)O)cc1OC (stereo not given) | – |
| > 100 | COc1ccc(CC(OC(=O)/C=C/c2ccc3ccccc3c2)C(=O)O)cc1OC (stereo not given) | – |
| > 100 | COc1ccc(CC(OC(=O)/C=C/c2ccc3c(c2)OCC3)C(=O)O)cc1OC (stereo not given) | – |
| 7.6 | COc1ccc(CC(OC(=O)/C=C/c2ccc(Br)cc2)C(=O)NO)cc1OC (stereo not given) | – |
| 5.5 | COc1ccc(CC(OC(=O)/C=C/c2ccc(-c3ccccc3)cc2)C(=O)NO)cc1OC (stereo not given) | – |
| 3.6 | COc1ccc(CC(OC(=O)/C=C/c2ccc(OCc3ccccc3)cc2)C(=O)NO)cc1OC (stereo not given) | – |
| 4.2 | COc1ccc(CC(OC(=O)/C=C/c2ccc(OCc3ccccc3)c(OCc3ccccc3)c2)C(=O)NO)cc1OC (stereo not given) | – |
| 6.8 | COc1ccc(CC(OC(=O)/C=C/c2ccc3ccccc3c2)C(=O)NO)cc1OC (stereo not given) | – |
| 10.6 | COc1ccc(CC(OC(=O)/C=C/c2ccc3c(c2)OCC3)C(=O)NO)cc1OC (stereo not given) | – |
| > 100 | C=CCOC(=O)C(Cc1ccc(OC)c(OC)c1)OC(=O)/C=C/c1ccc(C(F)(F)F)cc1 (stereo not given) | – |
| > 100 | C=CCOC(=O)C(Cc1ccc(OC)c(OC)c1)OC(=O)/C=C/c1ccc(Cl)cc1 (stereo not given) | – |
| > 100 | C=CCOC(=O)C(Cc1ccc(OC)c(OC)c1)OC(=O)/C=C/c1ccc(Br)cc1 (stereo not given) | – |
| > 100 | C=CCOC(=O)C(Cc1ccc(OC)c(OC)c1)OC(=O)/C=C/c1ccc([N+](=O)[O-])cc1 (stereo not given) | – |
| > 100 | C=CCOC(=O)C(Cc1ccc(OC)c(OC)c1)OC(=O)/C=C/c1ccc(OCc2ccccc2)cc1 (stereo not given) | – |
| 0.4 | COc1ccc(C[C@@H](OC(=O)/C=C/c2ccc(OCc3ccccc3)c(OCc3ccccc3)c2)C(=O)O)cc1OC | IC50 [2]: 4.5 µM; IC50 [3]: 4 µM; IC50 [4]: 3.2 µM; IC50 [5]: 2.1 µM; IC50 [6]: 6.7 µM |
| 0.8 | COc1ccc(C[C@H](OC(=O)/C=C/c2ccc(OCc3ccccc3)c(OCc3ccccc3)c2)C(=O)O)cc1OC | IC50 [2]: 5.4 µM; IC50 [3]: 3.4 µM; IC50 [4]: 3 µM; IC50 [5]: 2.3 µM; IC50 [6]: 6 µM |
| 5.6 | O=C(/C=C/c1ccc(O)c(O)c1)O[C@H](Cc1ccc(O)c(O)c1)C(=O)O [ROSMARINIC ACID] | – |
